Reference: patent US20250367189A1, “2-BROMO-LYSERGIC ACID DI[…] SUBSTANCE ABUSE” (Ceruvia Lifesciences LLC, priority 2020, published 2025)

What was measured:
[1] = target: T1, 5HT1A receptors (Homo sapiens, UniProt P08908); conditions: cited from earlier work
T1 sequence (P08908 1-422): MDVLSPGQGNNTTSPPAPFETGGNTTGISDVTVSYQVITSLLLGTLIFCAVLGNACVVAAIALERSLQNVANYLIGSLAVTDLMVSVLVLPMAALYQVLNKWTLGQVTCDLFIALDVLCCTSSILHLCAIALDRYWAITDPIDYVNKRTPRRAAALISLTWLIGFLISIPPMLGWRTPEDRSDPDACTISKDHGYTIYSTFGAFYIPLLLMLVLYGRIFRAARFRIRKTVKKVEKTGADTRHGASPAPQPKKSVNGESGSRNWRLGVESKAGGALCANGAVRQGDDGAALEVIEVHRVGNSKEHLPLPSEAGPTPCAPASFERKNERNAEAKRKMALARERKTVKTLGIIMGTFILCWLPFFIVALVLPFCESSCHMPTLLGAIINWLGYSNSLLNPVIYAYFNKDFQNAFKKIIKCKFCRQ

[2] = tested on: participants with alcohol dependence; conditions: single high-dose LSD session vs control, six trials; cited from earlier work
[3] = tested on: C57BL/6J mice; conditions: cited from earlier work
[4] = target: 5HT2A receptors (Homo sapiens, UniProt P28223); conditions: cited from earlier work
Chain of 5HT2A receptors (P28223 whole entry): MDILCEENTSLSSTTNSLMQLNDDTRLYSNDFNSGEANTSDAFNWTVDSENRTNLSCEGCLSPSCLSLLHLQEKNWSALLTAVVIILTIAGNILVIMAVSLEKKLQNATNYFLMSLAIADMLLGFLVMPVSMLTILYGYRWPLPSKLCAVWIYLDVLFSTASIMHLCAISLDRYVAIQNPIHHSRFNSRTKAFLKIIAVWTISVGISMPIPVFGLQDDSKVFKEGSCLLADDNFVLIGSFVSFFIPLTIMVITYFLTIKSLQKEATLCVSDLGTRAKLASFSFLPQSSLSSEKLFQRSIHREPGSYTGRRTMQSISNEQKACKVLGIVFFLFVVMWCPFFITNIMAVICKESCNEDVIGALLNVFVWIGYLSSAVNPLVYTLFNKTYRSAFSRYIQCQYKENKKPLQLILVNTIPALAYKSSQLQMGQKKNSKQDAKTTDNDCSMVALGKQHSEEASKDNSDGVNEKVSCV

[5] = tested on: dopamine receptors; conditions: cited from earlier work
[6] = tested on: male fosTRAP2×Ai14 mice; experiment: Two-bottle choice (water vs 20% ethanol) drinking after ethanol exposure; type: in vivo; conditions: for ethanol preference, within-group mean difference week 1 vs. week 3: follow-up week 1 (after dose 1) vs week 3 (after dose 2); for ethanol consumption, mean difference Saline vs. treatment: planned contrast across 4 follow-up weeks, LSD 50 ug/kg or BOL-148 3.0 mg/kg intraperitoneal; for effect of treatment on alcohol preference (summary) / additive effect of a second dose on alcohol preference: summary in words; for additive effect of a second dose on alcohol preference: two doses, weeks 1 and 3
Description: Twenty-five adult (12-30-week old), male fosTRAP2×Ai14 mice were bred in-house. Generation of the fosTRAP2 and FosTRAP lines were previously described (Guenthner, et al.). fosTRAP2 mice were crossed with Ai14 mice to obtain the mice used in this study. Mice were single-housed on a reverse light-dark cycle and given unlimited access to standard mouse chow and water. Animals were given a week to habituate to single housing, after which they were given free access to 2 bottles containing water and 20% ethanol for 24-hour periods beginning at the start of their dark cycle, 5 days per week (Monday-Friday) for 4 weeks (ethanol exposure). Amount of water and ethanol consumed (by volume and weight) were measured for each mouse across the final 5 days of the ethanol exposure period, and ethanol preference was counterbalanced across treatment group by the mean ethanol preference by weight (corrected for body weight) during this period.
Following 4 weeks of ethanol exposure, animals were administered one of 3 treatments via a single intraperitoneal injection 10 minutes prior to onset of the dark cycle/day one in a five-day cycle of alcohol exposure: saline, LSD 50 ug/kg, or BOL-148 3.0 mg/kg. Following administration of treatment, animals were placed back into their home cages with free access to standard mouse chow and water. After 10 minutes, 12 animals from each treatment group were given free access to 2 bottles containing water and 20% ethanol for 24 hours daily for 4 weeks (alcohol preference). Amount of water and ethanol consumed (by volume and weight) were measured daily at the end of the light cycle. Positions of bottles containing water and 20% ethanol were alternated daily to prevent the formation of place preference. An additional 2-4 animals per treatment group were given free access to standard mouse chow and water, and ambulatory activity as well as head-twitching behavior (thought to correspond with hallucinogenicity of substances in mice), was measured for 35 minutes following treatment.
For all hypotheses, data were analyzed using Mixed Models for Repeated Measures (MMRM), including fixed effects of Treatment (Saline, BOL, LSD), Week (1-4), Day (1-5), and two- and three-way interactions between Treatment and Day/Week. Repeated Effects were represented as a nested within-subjects variable (days within weeks). Data were analyzed separately for each of 3 dependent variables: ethanol consumption (mg and ml consumed), ethanol preference (ethanol consumption/total fluid consumption), and total fluid consumption (mg and ml consumed). For hypothesis 1a, a priori between-group comparisons are performed to contrast ethanol consumption, ethanol preference, and total fluid consumption between the vehicle- and LSD-treated groups. For hypothesis 1b, a priori between-group comparisons are performed to contrast ethanol consumption, ethanol preference, and total fluid consumption between the LSD-treated group at follow-up weeks 1 versus 3. For hypothesis 2a, a priori between-group comparisons are performed to contrast ethanol consumption, ethanol preference, and total fluid consumption between the vehicle- and BOL-148-treated groups. For hypothesis 2b, a priori between-group comparisons are performed to contrast ethanol consumption, ethanol preference, and total fluid consumption between the LSD- and BOL-148-treated groups. For each hypothesis, with 3 groups of 5-10 animals (total n=25) and 20 days of repeated measurements (autocorrelation=0.5), there is power of 0.8 to detect moderately-sized effects of approximately d=0.3 at alpha=0.05.

[7] = tested on: rodents; conditions: cited from earlier work
[8] = tested on: rats; conditions: cited from earlier work
[9] = tested on: participants with alcoholism; conditions: DPT treatment vs conventional treatment; cited from earlier work
[10] = tested on: participants with alcoholism; conditions: 1 to 6 DPT sessions; cited from earlier work
[11] = tested on: human participants; conditions: 0.03 mg/kg delivered daily; cited from earlier work
[12] = in vivo; cited from earlier work
[13] = tested on: 5-HT receptors; conditions: cited from earlier work
[14] = tested on: rats; conditions: cited from earlier work; remark: listed apart in the source
[15] = tested on: humans; conditions: cited from earlier work
[16] = LSD 50 ug/kg or BOL-148 3.0 mg/kg IP

Structure (SMILES): CCN(CC)C(=O)[C@@H]1C=C2c3cccc4[nH]cc(c34)C[C@H]2N(C)C1 [LSD, lysergic acid diethylamide]
- activity at 5HT1A receptors [1]: potent agonist
- odds of improvement at first post-treatment follow-up (OR) [2]: 1.96
- effect on alcohol consumption and alcohol preference ([3]; acute administration of 50 ug/kg LSD, C57BL/6J mice): robust and lasting reduction
- duration of observation over which reduced ethanol consumption was shown ([3]; mice, 25 μg/kg LSD): 46 days
- group mean reduction of ethanol consumption relative to controls ([3]; mice, 25 μg/kg LSD): 17.9%
- activity at 5HT2A receptors [4]: partial agonist
- activity at dopamine receptors [5]: partial agonist
- ethanol preference, mean difference LSD vs. BOL-148 ([6]; LSD 50 ug/kg versus BOL-148 3.0 mg/kg treated groups): 0.081
- ethanol preference, within-group mean difference week 1 vs. week 3 [6, 16]: 0.014
- ethanol consumption, mean difference Saline vs. treatment [6]: 0.050 mg total ethanol consumed/mg of body weight
- ethanol preference (ethanol consumption/total fluid consumption), mean difference Saline vs. treatment ([6]; planned contrast across follow-up, LSD 50 ug/kg or BOL-148 3.0 mg/kg IP): 0.168
- ethanol consumption, mean difference Saline vs. LSD, Week 1 ([6]; post-hoc, Week 1 (injection week), LSD 50 ug/kg IP): 0.062 mg total ethanol consumed/mg of body weight
- ethanol consumption, mean difference Saline vs. LSD, Week 2 ([6]; post-hoc, Week 2 (non-injection week), LSD 50 ug/kg IP): 0.077 mg total ethanol consumed/mg of body weight
- ethanol consumption, mean difference Saline vs. LSD, Week 3 ([6]; post-hoc, Week 3 (injection week), LSD 50 ug/kg IP): −0.029 mg total ethanol consumed/mg of body weight
- ethanol consumption, mean difference Saline vs. LSD, Week 4 ([6]; post-hoc, Week 4 (non-injection week), LSD 50 ug/kg IP): 0.089 mg total ethanol consumed/mg of body weight
- effect of treatment on alcohol preference (summary) [6]: becomes apparent immediately, and remains stable for weeks
- additive effect of a second dose on alcohol preference [6]: An additive effect was not found
- range of doses that reliably produce accurate responding in a discrimination task or head twitch response [7]: 0.17 to 0.2 mg/kg

Structure (SMILES): COc1cc(CC(C)N)c(OC)cc1I (stereo not shown) [DOI, 2,5-dimethoxy-4-iodoamphetamine]
- effect on alcohol preference [8]: reduce alcohol preference

Structure (SMILES): CCCN(CCC)CCc1c[nH]c2ccccc12 [DPT, Dipropyltryptamine]
- clinical outcomes at 6 month follow-up vs other groups [9]: no significant differences
- clinical outcomes including abstinence at 6 months [10]: highly significant improvement

Structure (SMILES): CCN(CC)C(=O)[C@@H]1C=C2c3cccc4[nH]c(Br)c(c34)C[C@H]2N(C)C1 [BOL-148, 2-bromo-lysergic acid diethylamide]
- effect on cluster headaches [11]: effective at reducing cluster headaches
- psychedelic activity [12]: inactive as a psychedelic
- activity at 5HT2A receptors [4]: 5HT2A antagonist activity
- effect on 5-HT receptors [13]: neutral antagonist
- ethanol preference, within-group mean difference week 1 vs. week 3 [6, 16]: 0.119
- ethanol consumption, mean difference Saline vs. treatment [6]: 0.004 mg total ethanol consumed/mg of body weight
- effect of treatment on alcohol preference (summary) [6]: modest effect
- additive effect of a second dose on alcohol preference [6]: an additive effect of BOL-148 was found
- blockade of the effects of LSD by pre-treatment [14]: will not block the effects of LSD
- blockade of the effects of LSD in humans [15]: could block the effects of LSD
